From patent publication US5700446A, “Synthesis of ferrocenyl phenyltropane analogs and their radio-transformation to technetium neuroprobes for mapping monoamine reuptake sites” (Neuro Imaging Technologies, LLC, priority 1996, dated 1997) come the findings set out here.

The target of assay [1] is T1, serotonin transporter (Rattus norvegicus, UniProt P31652).
T1 construct: rat brain corpus striatum (for the dopamine transporter) or frontoparietal cerebral cortex (for the serotonin and norepinephrine transporters); from tissue; host or cells: rat frontoparietal cerebral cortex, crude membrane fraction
Nature of the assay: Radioreceptor binding assay, serotonin transporter ([3H]paroxetine), rat frontoparietal cerebral cortex membranes. Particulars: [3H]paroxetine 0.2 nM, 60 min at 20° C., Tris buffer pH 7.4, rat frontoparietal cortex; ±SEM; read-out: Serotonin Transporter (5-HTT) (Ki).

The target of assay [2] is T2, dopamine transporter (Rattus norvegicus, UniProt P23977).
T2 construct: crude membrane fraction of homogenates of rat brain corpus striatum (for the dopamine transporter); from tissue; host or cells: rat brain corpus striatum, crude membrane fraction
Description: Radioreceptor binding assay, dopamine transporter ([3H]GBR-12935), rat brain corpus striatum membranes. Particulars: for Ki: [3H]GBR-12935 0.4 nM, 45 min at 4° C., Tris buffer pH 7.4, rat corpus striatum, ±SEM, read-out: Dopamine Transporter (DAT) (Ki); for DAT/5-HTT Selectivity: ratio of Ki for the dopamine transporter to the Ki for the serotonin transporter.

T1 sequence (P31652 whole entry): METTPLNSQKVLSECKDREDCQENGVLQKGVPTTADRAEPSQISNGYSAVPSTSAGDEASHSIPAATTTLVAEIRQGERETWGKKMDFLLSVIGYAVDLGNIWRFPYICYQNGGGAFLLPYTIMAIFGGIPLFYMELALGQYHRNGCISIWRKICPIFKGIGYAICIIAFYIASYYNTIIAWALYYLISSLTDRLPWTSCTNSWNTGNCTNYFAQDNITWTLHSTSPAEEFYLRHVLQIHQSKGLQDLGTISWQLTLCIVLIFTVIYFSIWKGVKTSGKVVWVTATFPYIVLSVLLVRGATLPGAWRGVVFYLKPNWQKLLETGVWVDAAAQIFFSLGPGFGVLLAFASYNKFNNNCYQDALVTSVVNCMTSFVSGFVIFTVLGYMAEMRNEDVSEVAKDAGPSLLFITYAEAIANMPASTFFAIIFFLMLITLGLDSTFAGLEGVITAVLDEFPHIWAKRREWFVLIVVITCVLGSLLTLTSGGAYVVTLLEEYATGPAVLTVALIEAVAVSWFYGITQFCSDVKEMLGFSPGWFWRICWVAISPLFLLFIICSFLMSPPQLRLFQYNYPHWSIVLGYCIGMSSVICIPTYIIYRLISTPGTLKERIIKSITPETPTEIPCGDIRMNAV
T2 sequence (P23977 whole entry): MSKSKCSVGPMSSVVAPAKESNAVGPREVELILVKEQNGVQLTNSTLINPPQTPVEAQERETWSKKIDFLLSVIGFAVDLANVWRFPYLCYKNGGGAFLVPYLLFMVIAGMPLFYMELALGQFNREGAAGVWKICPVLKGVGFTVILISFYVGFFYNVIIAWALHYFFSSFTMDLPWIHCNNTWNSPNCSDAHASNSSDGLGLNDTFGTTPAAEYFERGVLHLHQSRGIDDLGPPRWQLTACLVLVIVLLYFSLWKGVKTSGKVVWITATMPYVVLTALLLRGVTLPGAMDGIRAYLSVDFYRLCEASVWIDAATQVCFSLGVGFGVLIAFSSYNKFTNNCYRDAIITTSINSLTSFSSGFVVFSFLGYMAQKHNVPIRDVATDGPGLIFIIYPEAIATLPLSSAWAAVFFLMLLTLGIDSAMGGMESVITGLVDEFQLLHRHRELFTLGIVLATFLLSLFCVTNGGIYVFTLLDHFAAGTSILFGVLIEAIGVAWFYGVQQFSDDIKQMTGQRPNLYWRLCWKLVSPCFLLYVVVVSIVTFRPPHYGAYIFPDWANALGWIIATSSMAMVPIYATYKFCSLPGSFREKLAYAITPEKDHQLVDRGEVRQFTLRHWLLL

As usually defined, the Ki is a dissociation constant, usually derived from enzyme kinetics or from competition with a known ligand. Turning to “3β-(4-Chlorophenyl)-2β-tricarbonylrheniumcyclopentadienylcarboxymethyl)tropane [RBI-219]”, the Ki in assay [1] amounted to 11.9 ± 1.7 nM. Further, in assay [2], the Ki was 4.41 ± 0.76 nM and the “DAT/5-HTT Selectivity” value is on record as 0.37.
As for “3β-(4-iodophenyl)-2β-(tricarbonylrheniumcyclopentadienylcarboxymethyl)tropane [RBI-211]”, the Ki in assay [1] was determined as 34.6 ± 3.4 nM; in assay [2], 7.22 ± 1.06 nM. Further, the “DAT/5-HTT Selectivity” value in assay [2] came to 0.21.
For “N-(tricarbonylmanganesecyclopentadienylbutan-1-one-4-yl)-2β-carbomethoxy-3β-(4-chlorophenyl)nortropane [RBI-233]” the same measures were 0.84 ± 0.06 nM, 1.67 ± 0.39 nM and 2.
For “N-(tricarbonylrheniumcyclopentadienylbutan-1-one-4-yl)-2β-carbomethoxy-3β-(4-chlorophenyl)nortropane [RBI-235]”, the Ki in assay [1] turned out to be 0.37 ± 0.04 nM. In addition, in assay [2], the Ki is 1.29 ± 0.1 nM and the “DAT/5-HTT Selectivity” value is recorded as 3.49.
For “N-(tricarbonylrheniumcyclopentadienylcarboxypropyl)-2β-carbomethoxy-3β-(4-chlorophenyl)nortropane [RBI-232]”, in that order: 0.56 ± 0.08 nM, 2.66 ± 0.33 nM and 4.75.
